Data from ChEMBL document CHEMBL4842340, “Development of Cagrilintide, a Long-Acting Amylin Analogue” (J Med Chem, 2021).
Values after ≈ are worked out from the molar mass of the structure shown. *1 amine or outer side, *2 acyl side, *3 side chain or, on linkers, in order; H or OH if unused. Where a SMILES comes first, the peptide text is derived from it. Bridges are numbered along the chain shown (N, C = ends). The star is where a group is joined. C20 diacid = O=C(O)CCCCCCCCCCCCCCCCCCC(=O)*; γGlu = O=C(O)[C@H](CCC(=O)[*:2])N[*:1]

What was measured:
[1] = Agonist activity at human AMY3R (CT+RAMP3) expressed in Hollex1 cells incubated for 3 hrs by luminescence assay; type: cell-based; details: Hollex1, 3 h
[2] = Agonist activity at human calcitonin receptor expressed in BHK570 cells assessed as increase in intracellular cAMP concentration incubated for 3 hrs in absence of albumin by CRE luciferase reporter gene assay; type: cell-based; details: BHK570, 3 h
Homo sapiens [3] = species on record: Homo sapiens; assay: Ratio of EC50 for human calcitonin receptor expressed in BHK570 cells to EC50 for human AMY3R (CT+RAMP3) expressed in Hollex1 cells; type: cell-based
[4] = Agonist activity at rat AMY3R (CT+RAMP3) expressed in tk-ts13 cells assessed as increase in intracellular cAMP level incuabted for 25 mins by CRE luciferase reporter gene assay; type: cell-based; details: tk-ts13, 25 min
[5] = Agonist activity at rat calcitonin receptor expressed in BHK-13 cells assessed as increase in intracellular cAMP concentration incubated for 25 mins by CRE luciferase reporter gene assay; type: cell-based; details: BHK-13, 25 min
[6] = Displacement of [125I]-calcitonin from human calcitonin receptor expressed in tk-ts 13 cells measured after 120 mins by scintillation proximity assay; type: cell-based; details: tk-ts13
Homo sapiens [7] = species on record: Homo sapiens; assay: Ratio of IC50 for displacement of [125I]-calcitonin from human calcitonin receptor expressed in tk-ts 13 cells to IC50 for displacement of [125I]-amylin from human AMY3R (CTR+RAMP3) expressed in BHK-13 cells; type: cell-based
[8] = Displacement of [125I]-amylin from rat AMY3R (CTR+RAMP3) expressed in BHK-13 cells measured after 120 mins by scintillation proximity assay; type: cell-based
[9] = Displacement of [125I]-calcitonin from rat calcitonin receptor expressed in tk-ts 13 cells measured after 120 mins by scintillation proximity assay; type: cell-based; details: tk-ts13
Rattus norvegicus [10] = species on record: Rattus norvegicus; assay: Ratio of IC50 for displacement of [125I]-calcitonin from rat calcitonin receptor expressed in tk-ts 13 cells to IC50 for displacement of [125I]-amylin from rat AMY3R (CTR+RAMP3) expressed in BHK-13 cells; type: cell-based
[11] = Displacement of [125I]-amylin from human AMY3R (CTR+RAMP3) expressed in BHK-13 cells measured after 120 mins by scintillation proximity assay; type: cell-based
[12] = Solubility of the compound in lactate at pH 3 by UPLC analysis; type: physicochemical; details: lactate buffer
[13] = Solubility of the compound in lactate at pH 4 by UPLC analysis; type: physicochemical; details: lactate buffer
Rattus norvegicus [14] = species on record: Rattus norvegicus; assay: Ratio of EC50 for rat calcitonin receptor expressed in BHK-13 cells to EC50 for rat AMY3R (CT+RAMP3) expressed in tk-ts13 cells; type: cell-based
Insulin (Homo sapiens) [15] = target: Insulin (Homo sapiens) (UniProt P01308); assay: Effect on insulin (unknown origin) amyloid fibril formation assessed as lag time in glycyl-glycine buffer at pH 4 measured after 45 hrs by thioflavin-T fluorescence assay
Chain of Insulin (Homo sapiens) (P01308 whole entry): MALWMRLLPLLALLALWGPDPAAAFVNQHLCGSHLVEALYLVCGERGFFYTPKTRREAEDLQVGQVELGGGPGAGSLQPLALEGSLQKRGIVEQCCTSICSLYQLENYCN

Insulin (Homo sapiens) [16] = target: Insulin (Homo sapiens) (UniProt P01308); assay: Effect on insulin (unknown origin) amyloid fibril formation assessed as peptide recovery in glycyl-glycine buffer at pH 4 measured after 45 hrs by thioflavin-T fluorescence assay relative to control; set-up: concentration or dose not given beside the values
Rattus norvegicus [17] = assay: Reduction in food intake in Sprague-Dawley rat at 3 nmol/kg, sc administered as single dose measured upto 24 hrs relative to control; type: functional; set-up: scale not given: the % may be the effect or the level left; details: time hrs <=24
Rattus norvegicus [18] = assay: Reduction in food intake in Sprague-Dawley rat at 3 nmol/kg, sc administered as single dose measured after 24 to 48 hrs relative to control; type: functional; set-up: scale not given: the % may be the effect or the level left; details: time 24-48 hrs
[19] = Solubility of the compound in lactate at pH 5 by UPLC analysis; type: physicochemical; details: lactate buffer
[20] = Solubility of the compound in bis-tris propane at pH 6 by UPLC analysis; type: physicochemical; details: bis-tris propane buffer
[21] = Solubility of the compound in bis-tris propane at pH 6.5 by UPLC analysis; type: physicochemical; details: bis-tris propane buffer
[22] = Solubility of the compound in bis-tris propane at pH 7 by UPLC analysis; type: physicochemical; details: bis-tris propane buffer

SMILES | EC50 [1] [nM] | EC50 [2] [nM] | IC50 [6] [nM] | IC50 [8] [nM] | IC50 [9] [nM] | IC50 [11] [nM] | solubility [12] [µM] | solubility [13] [µM] | TIME (Insulin (Homo sapiens) [15]) [h] | Activity (Insulin (Homo sapiens) [16]) [%] | Ratio EC50 (Homo sapiens [3]) | Ratio IC50 (Homo sapiens [7]) | Ratio IC50 (Rattus norvegicus [10]) | Activity (Rattus norvegicus [17]) [%] | Activity (Rattus norvegicus [18]) [%] | also measured
CC(C)C[C@H](NC(=O)[C@H](CCCCN)NC(=O)CNC(=O)[C@H](CC(C)C)NC(=O)[C@@H](NC(=O)[C@@H]1CSSC[C@H](N)C(=O)N[C@@H](CO)C(=O)N[C@@H](CC(N)=O)C(=O)N[C@@H](CC(C)C)C(=O)N[C@@H](CO)C(=O)N[C@@H]([C@@H](C)O)C(=O)N1)C(C)C)C(=O)N[C@@H](CO)C(=O)N[C@@H](CCC(N)=O)C(=O)N[C@@H](CCC(=O)O)C(=O)N[C@@H](CC(C)C)C(=O)N[C@@H](Cc1c[nH]cn1)C(=O)N[C@@H](CCCCN)C(=O)N[C@@H](CC(C)C)C(=O)N[C@@H](CCC(N)=O)C(=O)N[C@H](C(=O)N[C@@H](Cc1ccc(O)cc1)C(=O)N1CCC[C@H]1C(=O)N[C@@H](CCCNC(=N)N)C(=O)N[C@H](C(=O)N[C@@H](CC(N)=O)C(=O)N[C@H](C(=O)NCC(=O)N[C@@H](CO)C(=O)NCC(=O)N[C@H](C(=O)N1CCC[C@H]1C(N)=O)[C@@H](C)O)[C@@H](C)O)[C@@H](C)O)[C@@H](C)O [CALCITONIN SALMON] | 0.002 | 0.003 | 0.066 | 0.028 | 0.03 | – | – | – | – | – | 2 | 1 | 1 | – | – | EC50 [4]: 0.001 nM; EC50 [5]: 0.0001 nM
CC[C@H](C)[C@H](NC(=O)[C@@H]1CCCN1C(=O)CNC(=O)[C@H](Cc1ccccc1)NC(=O)[C@H](CC(N)=O)NC(=O)[C@H](CC(N)=O)NC(=O)[C@H](CO)NC(=O)[C@H](CO)NC(=O)[C@H](Cc1c[nH]cn1)NC(=O)[C@H](CCCNC(=N)N)NC(=O)[C@H](CC(C)C)NC(=O)[C@H](Cc1ccccc1)NC(=O)[C@H](CCC(=O)O)NC(=O)[C@H](C)NC(=O)[C@H](CC(C)C)NC(=O)[C@H](CCCNC(=N)N)NC(=O)[C@H](CCC(N)=O)NC(=O)[C@@H](NC(=O)[C@H](C)NC(=O)[C@@H]1CSSC[C@H](NC(=O)[C@H](CCCCN)NC(=O)CC[C@H](NC(=O)CCCCCCCCCCCCCCCCCCC(=O)O)C(=O)O)C(=O)N[C@@H](CC(N)=O)C(=O)N[C@@H]([C@@H](C)O)C(=O)N[C@@H](C)C(=O)N[C@@H]([C@@H](C)O)C(=O)N1)[C@@H](C)O)C(=O)N[C@@H](CC(C)C)C(=O)N1CCC[C@H]1C(=O)N1CCC[C@H]1C(=O)N[C@H](C(=O)N[C@@H](CC(N)=O)C(=O)N[C@H](C(=O)NCC(=O)N[C@@H](CO)C(=O)N[C@@H](CC(N)=O)C(=O)N[C@H](C(=O)N[C@@H](Cc1ccc(O)cc1)C(N)=O)[C@@H](C)O)C(C)C)[C@@H](C)O ({C20 diacid-γGlu}-KCNTATCATQRLAEFLRHSSNNFGPILPPTNVGSNTY-NH2; disulfide 2-7) | 0.1 | 0.447 | 0.811 | 0.532 | 2.06 | 0.35 | 200 (≈ 895 µg/mL) | 200 (≈ 895 µg/mL) | 45 | 85 | 4 | – | 4 | 30 | 8 | Ratio EC50 (Rattus norvegicus [14]): 0.5
CC[C@H](C)[C@H](NC(=O)[C@@H]1CCCN1C(=O)CNC(=O)[C@H](Cc1ccccc1)NC(=O)[C@H](CC(N)=O)NC(=O)[C@H](CC(N)=O)NC(=O)[C@H](CO)NC(=O)[C@H](CO)NC(=O)[C@H](CCCNC(=N)N)NC(=O)[C@@H](NC(=O)[C@H](CC(C)C)NC(=O)[C@H](Cc1ccccc1)NC(=O)[C@H](CCC(=O)O)NC(=O)[C@H](C)NC(=O)[C@H](CC(C)C)NC(=O)[C@H](CCCNC(=N)N)NC(=O)[C@H](CCC(N)=O)NC(=O)[C@@H](NC(=O)[C@H](C)NC(=O)[C@@H]1CSSC[C@H](NC(=O)[C@H](Cc2cnc[nH]2)NC(=O)CC[C@H](NC(=O)CCCCCCCCCCCCCCCCCCC(=O)O)C(=O)O)C(=O)N[C@@H](CC(N)=O)C(=O)N[C@@H]([C@@H](C)O)C(=O)N[C@@H](C)C(=O)N[C@@H]([C@@H](C)O)C(=O)N1)[C@@H](C)O)C(C)C)C(=O)N[C@@H](CC(C)C)C(=O)N1CCC[C@H]1C(=O)N1CCC[C@H]1C(=O)N[C@H](C(=O)N[C@@H](CC(N)=O)C(=O)N[C@H](C(=O)NCC(=O)N[C@@H](CO)C(=O)N[C@@H](CC(N)=O)C(=O)N[C@H](C(=O)N[C@@H](Cc1ccc(O)cc1)C(N)=O)[C@@H](C)O)C(C)C)[C@@H](C)O ({C20 diacid-γGlu}-HCNTATCATQRLAEFLVRSSNNFGPILPPTNVGSNTY-NH2; disulfide 2-7) | 0.083 | 0.125 | 3.25 | 0.027 | 0.807 | 0.499 | 200 (≈ 889 µg/mL) | 200 (≈ 889 µg/mL) | 5 | 2 | 2 | 7 | 30 | 56 | 59 | solubility [19]: 10 µM (≈ 44.5 µg/mL); solubility [20]: 1 µM (≈ 4.45 µg/mL); solubility [21]: 1 µM (≈ 4.45 µg/mL); solubility [22]: 10 µM (≈ 44.5 µg/mL)

Now from value to compound, other results behind:

EC50 [1] [nM] | EC50 [2] [nM] | IC50 [6] [nM] | IC50 [8] [nM] | IC50 [9] [nM] | IC50 [11] [nM] | solubility [12] [µM] | solubility [13] [µM] | TIME (Insulin (Homo sapiens) [15]) [h] | Activity (Insulin (Homo sapiens) [16]) [%] | SMILES | Ratio EC50 (Homo sapiens [3]) | Ratio IC50 (Homo sapiens [7]) | Ratio IC50 (Rattus norvegicus [10]) | Activity (Rattus norvegicus [17]) [%] | Activity (Rattus norvegicus [18]) [%] | also measured
0.077 | 0.129 | 1.54 | 0.445 | 1.37 | 0.818 | 200 (≈ 913 µg/mL) | 200 (≈ 913 µg/mL) | – | – | CC[C@H](C)[C@H](NC(=O)[C@H](CCC(=O)O)NC(=O)CNC(=O)[C@H](Cc1ccccc1)NC(=O)[C@H](CC(N)=O)NC(=O)[C@H](CC(N)=O)NC(=O)[C@H](CO)NC(=O)[C@H](CO)NC(=O)[C@H](CCCNC(=N)N)NC(=O)[C@H](Cc1cnc[nH]1)NC(=O)[C@H](CC(C)C)NC(=O)[C@H](Cc1ccccc1)NC(=O)[C@H](CCC(=O)O)NC(=O)[C@H](C)NC(=O)[C@H](CC(C)C)NC(=O)[C@H](CCCNC(=N)N)NC(=O)[C@H](CCC(N)=O)NC(=O)[C@@H](NC(=O)[C@H](C)NC(=O)[C@@H]1CSSC[C@H](NC(=O)[C@H](Cc2cnc[nH]2)NC(=O)CC[C@H](NC(=O)CCCCCCCCCCCCCCCCCCC(=O)O)C(=O)O)C(=O)N[C@@H](CC(N)=O)C(=O)N[C@@H]([C@@H](C)O)C(=O)N[C@@H](C)C(=O)N[C@@H]([C@@H](C)O)C(=O)N1)[C@@H](C)O)C(=O)N[C@@H](CC(C)C)C(=O)N[C@@H](CO)C(=O)N[C@@H](CCCNC(=N)N)C(=O)N[C@H](C(=O)N[C@@H](CC(N)=O)C(=O)N[C@H](C(=O)NCC(=O)N[C@@H](CO)C(=O)N[C@@H](CC(N)=O)C(=O)N[C@H](C(=O)N[C@@H](Cc1ccc(O)cc1)C(N)=O)[C@@H](C)O)C(C)C)[C@@H](C)O | – | – | – | – | – | –
– | – | – | – | – | – | – | – | 0 | 0 | CC[C@H](C)[C@H](NC(=O)[C@@H](CCC(=O)O)NC(=O)CNC(=O)[C@H](Cc1ccccc1)NC(=O)[C@H](CC(N)=O)NC(=O)[C@H](CC(N)=O)NC(=O)[C@H](CO)NC(=O)[C@H](CO)NC(=O)[C@H](CCCNC(=N)N)NC(=O)[C@H](Cc1cnc[nH]1)NC(=O)[C@H](CC(C)C)NC(=O)[C@H](Cc1ccccc1)NC(=O)[C@H](CCC(=O)O)NC(=O)[C@H](C)NC(=O)[C@H](CC(C)C)NC(=O)[C@H](CCCNC(=N)N)NC(=O)[C@H](CCC(N)=O)NC(=O)[C@@H](NC(=O)[C@H](C)NC(=O)[C@@H]1CSSC[C@H](NC(=O)[C@H](Cc2cnc[nH]2)NC(=O)CC[C@H](NC(=O)CCCCCCCCCCCCCCCCCCC(=O)O)C(=O)O)C(=O)N[C@@H](CC(N)=O)C(=O)N[C@@H]([C@@H](C)O)C(=O)N[C@@H](C)C(=O)N[C@@H]([C@@H](C)O)C(=O)N1)[C@H](C)O)C(=O)N[C@@H](CC(C)C)C(=O)N[C@@H](CO)C(=O)N[C@@H](CCCNC(=N)N)C(=O)N[C@H](C(=O)N[C@@H](CC(N)=O)C(=O)N[C@H](C(=O)NCC(=O)N[C@@H](CO)C(=O)N[C@@H](CC(N)=O)C(=O)N[C@H](C(=O)N[C@@H](Cc1ccc(O)cc1)C(N)=O)[C@@H](C)O)C(C)C)[C@@H](C)O | 2 | 2 | 3 | – | – | –
